Assay results as given in paper PMC9508239 (Nature Communications, 2022).

How the values were obtained:
IR R14A = test: Auto-phosphorylation of IR in 293FT cells expressing IR R14A; type: cell-based, human
Experimental: (§1) For the activation assay, the short isoform of human IR in pCS2-MYC was used as described previously[20],[49]. Plasmid transfections into 293FT cells were performed with Lipofectamin^TM 2000 (Invitrogen).
(§2) The cells were incubated with the lysis buffer B [50 mM Hepes pH 7.4, 150 mM NaCl, 10% Glycerol, 1% Triton X-100, 1 mM EDTA, 100 mM sodium fluoride, 2 mM sodium orthovanadate, 20 mM sodium pyrophosphate, 0.5 mM dithiothreitol (DTT), 2 mM phenylmethylsulfonyl fluoride (PMSF)] supplemented with cOmplete Protease Inhibitor Cocktail (Roche), PhosSTOP (Sigma), and 25 U/ml turbo nuclease (Accelagen) on ice for 1 h. After centrifuging at 20,817×g at 4 °C for 10 min, the concentrations of cell lysate were measured using Micro BCA Protein Assay Kit (Thermo Scientific). About 50–60 μg total proteins were analyzed by SDS-PAGE and quantitative Western blotting. […] For quantitative western blots, anti-rabbit immunoglobulin G (IgG) (H + L) (WB, 1:5000; Dylight 800 conjugates, Cat. #5151) and anti-mouse IgG (H + L) (WB, 1:5000; Dylight 680 conjugates, Cat. #5470) (Cell Signaling) were used as secondary antibodies. […]

IR D707A = test: Auto-phosphorylation of IR in 293FT cells expressing IR D707A; type: cell-based, human
Experimental: as §1, §2

IR D496K = test: Auto-phosphorylation of IR in 293FT cells expressing IR D496K; type: cell-based, human
Experimental: as §1, §2

IR F701A/F705A = test: Auto-phosphorylation of IR in 293FT cells expressing IR F701A/F705A; type: cell-based, human
Experimental: as §1, §2

IR R345A = test: Auto-phosphorylation of IR in 293FT cells expressing IR R345A; type: cell-based, human
Experimental: as §1, §2

IR [1] = test: Insulin signaling in vivo, white adipose tissue (WAT); details: mouse epididymal WAT, vs vehicle
Experimental: as §2
Two to three months old male mice were fasted overnight. […] After centrifuging at 20,817×g at 4 °C for 30 min, the concentrations of cell lysate were measured using Micro BCA Protein Assay Kit (Thermo Scientific). The lysates were then analyzed by quantitative western blotting.

SREBP1 = test: Nuclear translocation of SREBP1 in primary mouse hepatocytes; type: cell-based; details: 100 nM, 30 min
Experimental: (§3) Primary hepatocytes were isolated from 2-month-old male mice with a standard two-step collagenase perfusion procedure as described earlier with some modifications[24],[48],[49]. […] After 1–2 s upon the appearance of white spots in the liver, we cut the portal vein with scissors to wash out blood, and then the liver was perfused with 30 ml of Liver Digest Medium (Thermo Scientific, Cat. #17703034). The dissected liver was gently washed with low-glucose DMEM and transferred to a sterile culture dish containing 15 ml Liver Digest Medium. The isolated liver cells were filtered through the 70 μm cell strainer into a 50 ml tube. After centrifuging at 50×g for 5 min at 4 °C, cells were washed with cold low-glucose DMEM three times. […] After 2 h, the medium was changed to serum-free low-glucose DMEM.
Primary hepatocytes were described in the primary hepatocyte isolation section. […] Cells were fixed with 4% paraformaldehyde for 10 min. The fixed cells were incubated with PBS for 30 min and 3% BSA in PBS with 0.1% Triton X-100 (0.1% PBST) for 1 h, and then treated with anti-SREBP1 antibodies (20B12, Millipore, Cat. #MABS1987, 1:200) in 3% BSA in 0.1% PBST at 4 °C overnight. After being washed, cells were incubated with secondary antibodies (Alexa Fluor 488 goat anti-rabbit, Invitrogen, Cat. #A11008, 1:200) for 1 h. […]

IR [2] = test: IR signaling (pY IR, pAKT, pERK) in primary mouse hepatocytes (Fig. S9); type: cell-based
Experimental: as §3, §2

blood glucose = test: Insulin tolerance test; type: in vivo, mouse; details: i.p.; Humulin 6 nmol/kg, S597, S20D, W6A, F27A 9 nmol/kg, N20 27 nmol/kg; male mice
Experimental: Briefly, 2–3 months old male mice were fasted for 2 h and their blood glucose levels (T = 0) were measured with tail bleeding using a glucometer (AlphaTRAK). After then, mice were injected intraperitoneally with Humulin (6 nmol/kg body weight), S597 (9 nmol/kg), S597-S20D (9 nmol/kg), S597-W6A (9 nmol/kg), S597-F27A (9 nmol/kg), or S597-N20 (27 nmol/kg), and their blood glucose levels were measured at the indicated time points after injection.

## insulin: native IR ligand used as comparator; Humulin in the in vivo tests
IR R14A
  IR activation: reduced insulin-dependent IR activation
IR D707A
  IR activation: reduced insulin-dependent IR activation
IR D496K
  IR activation: reduced insulin-dependent IR activation
IR F701A/F705A
  IR activation: reduced insulin-dependent IR activation
IR R345A
  IR activation: largely diminished IR activation by insulin
IR [1]
  pAKT, WAT: significantly increased pAKT levels
  pERK, WAT: neither insulin nor S597 had a statistically significant effect on pERK levels
SREBP1
  nuclear translocation of SREBP1: stimulated to the same level by insulin and S597
IR [2]
  phosphorylation of AKT, primary hepatocytes: increased the levels of pY IR, pAKT, and pERK similarly
  phosphorylation of ERK, primary hepatocytes: increased the levels of pY IR, pAKT, and pERK similarly
  phosphorylation of IR, primary hepatocytes: increased the levels of pY IR, pAKT, and pERK similarly
Blood glucose
  blood glucose lowering: significantly reduced
